The text below walks through data of patent publication US20100029619A1, “FUSED HETEROCYCLIC COMPOUND” (TAKEDA PHARMACEUTICAL COMPANY LIMTED, priority 2006, published 2010).

On to `CC(C)(CO)c1ccc(C(=O)Nc2cn3cc(-c4cn[nH]c4)ccc3n2)cc1` [Example 464, 4-(2-hydroxy-1,1-dimethylethyl)-N-[6-(1H-pyrazol-4-yl)imidazo[1,2-a]pyridin-2-yl]benzamide], for which the melting point was 293 to 296 °C.
`CC(C)(CO)c1ccc(C(=O)Nc2cn3cc(-c4ccoc4)ccc3n2)cc1` [Example 465, N-[6-(3-furyl)imidazo[1,2-a]pyridin-2-yl]-4-(2-hydroxy-1,1-dimethylethyl)benzamide]: the melting point is 246 to 248 °C.
Regarding `CC(C)(CO)c1ccc(C(=O)Nc2cn3cc(-c4ccsc4)ccc3n2)cc1` [Example 466, 4-(2-hydroxy-1,1-dimethylethyl)-N-[6-(3-thienyl)imidazo[1,2-a]pyridin-2-yl]benzamide], the melting point lay in the range of 250 to 252 °C.
The figure for `CC(C)(CCO)c1ccc(C(=O)Nc2cn3cc(Cl)ccc3n2)cc1` [Example 467, N-(6-chloroimidazo[1,2-a]pyridin-2-yl)-4-(3-hydroxy-1,1-dimethylpropyl)benzamide] is 182 to 184 °C.
The value for `CC(C)(CCO)c1ccc(C(=O)Nc2cn3cc(-n4ccnc4)ccc3n2)cc1` [Example 468, 4-(3-hydroxy-1,1-dimethylpropyl)-N-[6-(1H-imidazol-1-yl)imidazo[1,2-a]pyridin-2-yl]benzamide] was 225 to 227 °C; that for `CC(C)(C)c1ccc(C(=O)Nc2cn3cc(-n4cncn4)ccc3n2)cc1` [Example 469, 4-tert-butyl-N-[6-(1H-1,2,4-triazol-1-yl)imidazo[1,2-a]pyridin-2-yl]benzamide] was 274 to 276 °C.
